Values joined by “and” are separate entries in the source; they are usually repeats but may differ in a detail not shown here. Equal values may be shown once. Read-outs that look alike come from different tables or passages of the source.
Experiments:
[1] = test system: Mtb H37Rv pMSp12::GFP bioreporter strain; assay: microbe, parasite or virus in culture; assay type: cell-based, Mycobacterium tuberculosis; conditions: for MIC90: Mycobacterium tuberculosis, H37RV; for ADC MIC increase: may be due to serum binding
[2] = FRAP (Ferric Ion Reducing Antioxidant Power) assay; conditions: for FRAP: μM ascorbic acid equivalents per gram, mean ± SD
Protocol: The FRAP assay was conducted according to Benzie and Strain’s method, which consists of finding the compounds’ antioxidant potential in terms of μM ascorbic acid equivalents per gram dry weight (μM AAE/g). L-Ascorbic acid was used as a standard in the FRAP assay with concentrations varying between 0 and 1000 μM. The antioxidant potential of the tested samples was read at a wavelength of 593 nm in a Multiskan (Thermo Fisher Scientific, Waltham, MA, USA) spectrum plate reader.

[3] = TEAC (Trolox Equivalent Absorbance Capacity) assay; conditions: for TEAC: μM Trolox equivalents per gram, mean ± SD
Protocol: The TEAC assay was done according to the method developed by Pellegrini et al., which consists of determining the activities of the isolated compounds in terms of μM Trolox equivalents per gram dry weight (μM TE/g) of the test samples. Trolox was used as the standard with concentrations ranging from 0–500 μM. The absorbance was recorded by a Multiskan spectrometer plate reader at wavelength 734 nm. The antioxidant epigallocatechin gallate (EGCG) was used as a positive control.

[4] = ORAC (Oxygen Radical Absorbance Capacity) assay; conditions: for ORAC: μM Trolox equivalents per gram, mean ± SD
Protocol: The ORAC assay was conducted according to Prior et al.’s method, which is a modified version of the original ORAC assay developed by Cao and Prior [26]. In this assay, 2,2′-azobis(2-amidinopropane) dihydrochloride (AAPH) underwent thermal decomposition to generate peroxyl radicals, resulting in a reduction in fluorescence from fluorescein. The antioxidant potential of the isolated compounds was measured by their ability to prevent any loss in fluorescence from fluorescein by neutralizing peroxyl radicals and assessing the sample’s fluorescence area under the curve (AUC). The fluoroskan spectrum plate reader was programmed to record fluorescein’s fluorescence every 2 min after the addition of AAPH with the excitation wavelength at 485 nm and the emission wavelength at 530 nm. The Trolox (TE) stock solution was used as standard with concentration varying between 0 and 417 μM. The ORAC values were calculated using a regression equation (y = mx + c) between Trolox concentration (y in μM) and the net area under the fluorescence decay curve (x). ORAC values were expressed as μM Trolox equivalents (TE) per gram of test samples (μM TE/g). The antioxidant epigallocatechin gallate (EGCG) was used as a positive control.

[5] = In vitro cytotoxicity MTT assay; conditions: human
HaCaT cells = assay: In vitro cytotoxicity MTT assay; conditions: HaCaT cells
in vitro = conditions: human
[6] = 168 h, […], 7 days, 90% inhibition, read-out: MIC90, 7H9/ADC/Glu/Tw, 7 Days
[7] = 168 h, […], 7 days, 90% inhibition, read-out: MIC90, 7H9/CAS/ Glu/Tx, 7 Days
[8] = 168 h, […], 7 days, value in brackets, read-out: MIC90, 7H9/CAS/ Glu/Tx, 7 Days
[9] = 168 h, supplement, […], day 7, read-out: GFP Assay - 10pt DR: MIC90 [Media: 7H9 ADC GLU Tw, Day:7]
[10] = 168 h, supplement, […], day 7, read-out: GFP Assay - 10pt DR: MIC90 [Media: 7H9 CAS GLU Tx, Day:7]
[11] = 336 h, […], 14 days, 90% inhibition, read-out: MIC90, 7H9/ADC/Glu/Tw, 14 Days
[12] = 336 h, […], 14 days, 90% inhibition, read-out: MIC90, 7H9/CAS/ Glu/Tx, 14 Days
[13] = 336 h, […], 14 days, value in brackets, read-out: MIC90, 7H9/CAS/ Glu/Tx, 14 Days
[14] = 336 h, supplement, […], day 14, read-out: GFP Assay - 10pt DR: MIC90 [Media: 7H9 ADC GLU Tw, Day:14]
[15] = 336 h, supplement, […], day 14, read-out: GFP Assay - 10pt DR: MIC90 [Media: 7H9 CAS GLU Tx, Day:14]
[16] = span over compounds, medium and day not stated (abstract), read-out: MIC90 against Mycobacterium tuberculosis H37Rv
[17] = 168 h, […], 7 days, value in brackets, read-out: MIC90, 7H9/ADC/Glu/Tw, 7 Days
[18] = 336 h, […], 14 days, value in brackets, read-out: MIC90, 7H9/ADC/Glu/Tw, 14 Days

CC(C)C1=C(O)C(=O)C2=C(C(=O)C(O)=C3C(C)(C)CCC[C@]23C)C1=O [Compound 4, coleon U quinone]
MIC90 [1, 6]: > 125 µg/mL | MIC90 [1, 7]: 15.6 µg/mL | MIC90 [1, 8]: 45.4 µM | MIC90 [1, 9]: > 125 µg/mL | MIC90 [1, 10]: 15.6 µg/mL | MIC90 [1, 11]: > 125 µg/mL | MIC90 [1, 12]: 1.93 µg/mL | MIC90 [1, 13]: 5.61 µM | MIC90 [1, 14]: > 125 µg/mL | MIC90 [1, 15]: 1.94 µg/mL | MIC90 [1, 16]: 5.61 to 180 µM | ADC MIC increase ([1]; […]): ADC MIC is increased > 4 fold which may be due to serum binding | antioxidant activity in FRAP assay (in words) [2]: weak antioxidant activities | FRAP [2]: 2109.6 ± 2.78 µM AAE/g | antioxidant activity in TEAC assay (in words) [3]: weak antioxidant activities | TEAC [3]: 225.5 ± 1.47 µM TE/g | antioxidant activity in ORAC assay (in words) [4]: good activity | ORAC [4]: 21,857.8 ± 5.85 µM TE/g | IC50 at 24 h [5]: 33.9 µg/mL and 98.5 µM | cytotoxic activity against HaCaT cells (in words) (HaCaT cells): good cytotoxic activities

CO[C@H]1/C=C/O[C@@]2(C)Oc3c(C)c(O)c4c(O)c(c(/C=N/N5CCN(C)CC5)c(O)c4c3C2=O)NC(=O)/C(C)=C\C=C\[C@H](C)[C@H](O)[C@@H](C)[C@@H](O)[C@@H](C)[C@H](OC(C)=O)[C@@H]1C [Rifampicin, reference compound]
MIC90 [1, 6]: 0.001 µg/mL | MIC90 [1, 7]: 0.015 µg/mL | MIC90 [1, 17]: 0.001 µM | MIC90 [1, 8]: 0.02 µM | MIC90 [1, 9]: 0.001 µg/mL | MIC90 [1, 10]: 0.013 µg/mL | MIC90 [1, 11]: 0.002 µg/mL | MIC90 [1, 12]: 0.035 µg/mL | MIC90 [1, 18]: 0.002 µM | MIC90 [1, 13]: 0.04 µM | MIC90 [1, 14]: 0.0011 µg/mL | MIC90 [1, 15]: 0.018 µg/mL | GFP Assay - 10pt DR: MIC90 [Media: 7H9 ADC GLU Tw, Day:7] ([1]; supplement, […], day 7): 0.002 µg/mL | GFP Assay - 10pt DR: MIC90 [Media: 7H9 CAS GLU Tx, Day:7] ([1]; supplement, […], day 7): 0.015 µg/mL | GFP Assay - 10pt DR: MIC90 [Media: 7H9 ADC GLU Tw, Day:14] ([1]; supplement, […], day 14): 0.001 µg/mL | GFP Assay - 10pt DR: MIC90 [Media: 7H9 CAS GLU Tx, Day:14] ([1]; supplement, […], day 14): 0.035 µg/mL

CC/C(=C(\c1ccccc1)c1ccc(OCCN(C)C)cc1)c1ccccc1 [tamoxifen]
IC50 at 24 h (in vitro): 22 µg/mL and 59.3 µM

CC(C)C1=C(O)C(=O)C2=C(C1=O)[C@H](O)[C@@H](O)C1C(C)(C)CCC[C@]21C (stereo partly drawn) [Compound 1, 6β,7α-dihydroxyroyleanone]
MIC90 [1, 6]: > 125 µg/mL | MIC90 [1, 7]: 62.5 µg/mL | MIC90 [1, 8]: 180 µM | MIC90 [1, 9]: > 125 µg/mL | MIC90 [1, 10]: 62.5 µg/mL | MIC90 [1, 11]: > 125 µg/mL | MIC90 [1, 12]: 60.6 µg/mL | MIC90 [1, 13]: 174 µM | MIC90 [1, 14]: > 125 µg/mL | MIC90 [1, 15]: 60.6 µg/mL | MIC90 [1, 16]: 5.61 to 180 µM | antioxidant activity in FRAP assay (in words) [2]: very little activity | FRAP [2]: 541.5 ± 1.59 µM AAE/g | antioxidant activity in TEAC assay (in words) [3]: good antioxidant activities | TEAC [3]: 5080.8 ± 0.04 µM TE/g | antioxidant activity in ORAC assay (in words) [4]: good antioxidant activities | ORAC [4]: 23,625.0 ± 1.64 µM TE/g | IC50 at 24 h [5]: 60.2 µg/mL and 173 µM

O=C(O[C@@H]1Cc2c(O)cc(O)cc2O[C@@H]1c1cc(O)c(O)c(O)c1)c1cc(O)c(O)c(O)c1 [EGCG, epigallocatechin gallate, reference compound]
FRAP [2]: 10,455.1 ± 0.81 µM AAE/g | TEAC [3]: 4722.5 ± 2.22 µM TE/g | ORAC [4]: 14,970.0 ± 5.53 µM TE/g

CC(=O)OC1C2=C(C(=O)C(O)=C(C(C)C)C2=O)C2(C)CCCC(C)(C)C2C1O (stereo not drawn) [Compound 2, 7α-acetoxy-6β-hydroxyroyleanone]
antimycobacterial activity (in words) [1]: moderate activities | MIC90 [1, 6]: 14.4 µg/mL | MIC90 [1, 7]: 15.2 µg/mL | MIC90 [1, 17]: 36.8 µM | MIC90 [1, 8]: 39 µM | MIC90 [1, 9]: 15 µg/mL | MIC90 [1, 10]: 15.2 µg/mL | MIC90 [1, 11]: 14.6 µg/mL | MIC90 [1, 12]: 15.6 µg/mL | MIC90 [1, 18]: 37.5 µM | MIC90 [1, 13]: 40.1 µM | MIC90 [1, 14]: 33.6 µg/mL | MIC90 [1, 15]: 15.6 µg/mL | MIC90 [1, 16]: 5.61 to 180 µM | antioxidant activity in FRAP assay (in words) [2]: weak antioxidant activities | FRAP [2]: 345.5 ± 0.77 µM AAE/g | antioxidant activity in TEAC assay (in words) [3]: weak antioxidant activities | TEAC [3]: 3700.8 ± 1.50 µM TE/g | antioxidant activity in ORAC assay (in words) [4]: good activity | ORAC [4]: 21,404.1 ± 4.35 µM TE/g | IC50 at 24 h [5]: 42.7 µg/mL and 109 µM

CC(C)C1=C(O)C(=O)C2=C(C1=O)[C@H](O)C[C@H]1C(C)(C)CCC[C@]21C [Compound 3, horminone]
MIC90 [1, 6]: > 125 µg/mL | MIC90 [1, 7]: 14.3 µg/mL | MIC90 [1, 8]: 43.2 µM | MIC90 [1, 9]: > 125 µg/mL | MIC90 [1, 10]: 14.3 µg/mL | MIC90 [1, 11]: > 125 µg/mL | MIC90 [1, 12]: 3.96 µg/mL | MIC90 [1, 13]: 11.9 µM | MIC90 [1, 14]: > 125 µg/mL | MIC90 [1, 15]: 3.96 µg/mL | MIC90 [1, 16]: 5.61 to 180 µM | ADC MIC increase ([1]; […]): ADC MIC is increased > 4 fold which may be due to serum binding | FRAP [2]: 296.5 ± 6.72 µM AAE/g | TEAC [3]: Inactive | ORAC [4]: 12,443.3 ± 3.61 µM TE/g | IC50 at 24 h [5]: 53.7 µg/mL and 162 µM

CC(C)c1cc2c(c(O)c1O)[C@@]13CCCC(C)(C)[C@@H]1[C@](O)(OC3)C2=O [Compound 5, carnosolon]
MIC90 [1, 6]: > 125 µg/mL | MIC90 [1, 7]: > 125 µg/mL | MIC90 [1, 9]: > 125 µg/mL | MIC90 [1, 10]: > 125 µg/mL | MIC90 [1, 11]: > 125 µg/mL | MIC90 [1, 12]: > 125 µg/mL | MIC90 [1, 14]: > 125 µg/mL | MIC90 [1, 15]: > 125 µg/mL | MIC90 ([1]; in both media, read-out: MIC90 against Mtb H37Rv): > 125 µg/mL | FRAP [2]: 13,772.2 ± 2.76 µM AAE/g | TEAC [3]: 4876.3 ± 0.49 µM TE/g | ORAC [4]: 29,287.4 ± 4.75 µM TE/g | IC50 at 24 h [5]: 27.5 µg/mL and 79.8 µM | cytotoxic activity against HaCaT cells (in words) (HaCaT cells): good cytotoxic activities

Source: publication PMC7832401, “Antimycobacterial, Cytotoxic, and Antioxidant Activities of Abietane Diterpenoids Isolated from Plectranthus madagascariensis” (Plants, 2021)
